Consider 19 molecules from EP4624465A1, “COMPOUND SERVING AS DDR1 KINASE INHIBITOR, AND MEDICINE” (Nippon Shinyaku Co., Ltd., priority 2022, dated 2024).

Assay [1] concerns the target T1, DDR1 kinase (Homo sapiens, UniProt Q08345). The assay is described as follows: Evaluation of DDR1 kinase inhibition in DDR1-expressing U2OS cells (type I collagen stimulation, PathHunter detection). Type of assay: cell-based. Conditions: type I collagen 50 µg/mL stimulation, duplicate, read-out: DDR-1 IC50. The arrangement: host or cells: U2OS.
Target sequence in this assay (Q08345 19-913): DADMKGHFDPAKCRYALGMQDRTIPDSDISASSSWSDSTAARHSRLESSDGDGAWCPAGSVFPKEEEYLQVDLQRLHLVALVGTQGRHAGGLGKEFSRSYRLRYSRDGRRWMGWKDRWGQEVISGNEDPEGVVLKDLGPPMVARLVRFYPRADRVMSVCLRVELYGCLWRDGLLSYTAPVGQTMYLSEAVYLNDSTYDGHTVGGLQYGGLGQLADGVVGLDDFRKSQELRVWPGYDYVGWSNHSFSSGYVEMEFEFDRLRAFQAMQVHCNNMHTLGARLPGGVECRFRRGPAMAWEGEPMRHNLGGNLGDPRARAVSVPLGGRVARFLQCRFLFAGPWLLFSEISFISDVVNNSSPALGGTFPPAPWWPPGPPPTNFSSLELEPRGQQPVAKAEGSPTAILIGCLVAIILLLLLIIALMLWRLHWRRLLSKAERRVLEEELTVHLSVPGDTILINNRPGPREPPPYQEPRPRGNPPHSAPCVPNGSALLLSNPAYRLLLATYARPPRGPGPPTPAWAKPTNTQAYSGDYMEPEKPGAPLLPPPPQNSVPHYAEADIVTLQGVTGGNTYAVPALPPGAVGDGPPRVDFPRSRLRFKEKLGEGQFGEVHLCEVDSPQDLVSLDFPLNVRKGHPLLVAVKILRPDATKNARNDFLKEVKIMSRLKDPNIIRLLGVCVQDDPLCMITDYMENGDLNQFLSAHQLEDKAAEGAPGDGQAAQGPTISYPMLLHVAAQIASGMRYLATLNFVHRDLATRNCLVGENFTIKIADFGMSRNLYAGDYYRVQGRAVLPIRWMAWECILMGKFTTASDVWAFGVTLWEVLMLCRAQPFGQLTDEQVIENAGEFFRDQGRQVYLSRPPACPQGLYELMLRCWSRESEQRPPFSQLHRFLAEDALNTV
The test system of assay [2] is anti-glomerular basement membrane antibody-induced nephritis model. The assay is described as follows: In vivo drug efficacy in an anti-glomerular basement membrane antibody-induced nephritis model (urinary albumin). Conditions: twice daily for 7 days, WKY/NCrlCrlj rats, antibody untreated group = 0%, medium-treated group = 100%.
The target in assay [3] is T1, DDR1 kinase. Kind of assay: Evaluation of DDR1 kinase inhibition (LANCE Ultra TR-FRET kinase assay). Type of assay: biochemical. The arrangement: purchased Carna Biosciences 08-113. Conditions: DDR1 protein 0.5 nM, LANCE Ultra ULight-poly GAT substrate, 2 hours at room temperature, duplicate; read-out: DDR-1 IC50. Background: In TR-FRET formats the signal depends on donor and acceptor labels being close together.
Target sequence in this assay (Q08345 19-876 isoform Q08345-2 limits assumed): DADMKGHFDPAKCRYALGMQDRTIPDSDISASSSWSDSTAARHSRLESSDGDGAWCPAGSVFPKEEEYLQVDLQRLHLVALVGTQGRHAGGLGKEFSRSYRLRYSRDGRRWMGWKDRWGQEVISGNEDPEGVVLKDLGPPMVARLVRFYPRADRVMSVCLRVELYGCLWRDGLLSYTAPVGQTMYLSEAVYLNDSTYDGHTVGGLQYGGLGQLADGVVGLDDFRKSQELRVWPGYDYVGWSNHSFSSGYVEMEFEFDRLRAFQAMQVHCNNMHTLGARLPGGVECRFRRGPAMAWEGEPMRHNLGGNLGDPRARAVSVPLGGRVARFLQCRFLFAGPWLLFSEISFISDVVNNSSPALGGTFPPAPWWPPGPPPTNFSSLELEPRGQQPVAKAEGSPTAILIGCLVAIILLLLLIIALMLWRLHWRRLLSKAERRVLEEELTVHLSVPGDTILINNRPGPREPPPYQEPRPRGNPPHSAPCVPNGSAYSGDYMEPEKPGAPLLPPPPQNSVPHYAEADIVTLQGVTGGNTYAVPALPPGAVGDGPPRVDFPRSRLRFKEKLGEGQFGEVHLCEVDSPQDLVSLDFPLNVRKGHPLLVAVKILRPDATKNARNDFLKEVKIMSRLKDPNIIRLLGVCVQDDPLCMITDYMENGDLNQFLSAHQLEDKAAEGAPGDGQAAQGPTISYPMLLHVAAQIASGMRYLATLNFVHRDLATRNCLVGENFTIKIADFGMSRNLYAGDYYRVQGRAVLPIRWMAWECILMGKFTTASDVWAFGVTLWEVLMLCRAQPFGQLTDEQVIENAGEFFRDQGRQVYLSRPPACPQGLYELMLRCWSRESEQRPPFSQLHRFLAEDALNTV

pIC50: −log10 of the molar value. Where a name gives a salt, the structure may show the parent alone.

By pIC50 is commonly meant −log10 of the IC50, conventionally taken in molar units. Turning to `Cl.Nc1cc(C(=O)N2CC(c3nn(CC(=O)N4CCC[C@H]4C(F)(F)F)c4cc(F)cc(F)c34)C2)ccn1` [Compound E-2, 2-{3-[1-(2-aminopyridine-4-carbonyl)azetidin-3-yl]-4,6-difluoro-1H-indazol-1-yl}-1-[(2S)-2-(trifluoromethyl)pyrrolidin-1-yl]ethan-1-one hydrochloride], the pIC50 on DDR1 kinase [1] was 7.43; at DDR1 kinase [3], 8.80. Further, in assay [2] (Dose 200 mg/kg), the “Amount (%) of albumin in urine compared with medium-treated group” value is listed as 73%.

As for `Nc1cc(C(=O)N2CC(c3nn(CC(=O)N4CCC[C@H]4C(F)(F)F)c4ccccc34)C2)c(F)cn1` [Compound E-3, 2-{3-[1-(2-amino-5-fluoropyridine-4-carbonyl)azetidin-3-yl]-1H-indazol-1-yl}-1-[(2S)-2-(trifluoromethyl)pyrrolidin-1-yl]ethan-1-one], the values for the negative logarithm of the IC50 (pIC50) at DDR1 kinase [1] and at DDR1 kinase [3] were 7.28 and 9.40, respectively. In assay [2] (Dose 100 mg/kg), the “Amount (%) of albumin in urine compared with medium-treated group” value stood at 67%.

As to `O=C(Cn1nc(C2CN(C(=O)c3ccnc(NC4CC4)c3)C2)c2c(F)cccc21)NCC(F)(F)F` [Compound E-65, 2-(3-{1-[2-(cyclopropylamino)pyridine-4-carbonyl]azetidin-3-yl}-4-fluoro-1H-indazol-1-yl)-N-(2,2,2-trifluoroethyl)acetamide hydrochloride], the values for the pIC50 at DDR1 kinase [1] and on DDR1 kinase [3] were 7.39 and 8.72, respectively.

As for `Nc1cc(C(=O)N2CC(c3nn(CC(=O)NCC(F)F)c4cccc(F)c34)C2)ccn1` [Compound E-242, 2-{3-[1-(2-aminopyridine-4-carbonyl)azetidin-3-yl]-4-fluoro-1H-indazol-1-yl}-N-(2,2-difluoroethyl)acetamide], the pIC50 on DDR1 kinase [1] is 6.13; at DDR1 kinase [3], 7.52.

On to `Nc1cc(C(=O)N2CC(c3nn(Cc4nc(-c5cccc(C(F)(F)F)c5)no4)c4cccc(F)c34)C2)ccn1` [Compound E-55, 4-{3-[4-fluoro-1-({3-[3-(trifluoromethyl)phenyl]-1,2,4-oxadiazol-5-yl}methyl)-1H-indazol-3-yl]azetidine-1-carbonyl}pyridin-2-amine], for which the values for the negative-log IC50 (pIC50) at DDR1 kinase [1] and at DDR1 kinase [3] were 6.82 and 7.64, respectively.

`Cc1ccc2c(n1)c(C1CN(C(=O)c3cc(N)ncc3F)C1)nn2CC(=O)N1CCOC(C(F)(F)F)C1` [Compound E-185, 2-{3-[1-(2-amino-5-fluoropyridine-4-carbonyl)azetidin-3-yl]-5-methyl-1H-pyrazolo(4,3-blpyridin-1-yl}-1-[{(2R)-2-(trifluoromethyl)morpholin-4-yl]ethan-1-one p-toluenesulfonate]: the negative-log IC50 (pIC50) is 5.48 at DDR1 kinase [1] and 7.66 at DDR1 kinase [3].

For the molecule `C[C@@H]1CN(C(=O)Cn2nc(C3CN(C(=O)c4ccnc(N)c4)C3)c3c(F)cc(F)cc32)C[C@H](C)O1` [Compound E-84, 2-{3-[1-(2-aminopyridine-4-carbonyl)azetidin-3-yl)-4,6-difluoro-1H-indazol-1-yl}-1-[(2R,68)-2,6-dimethylmorpholin-4-yl]ethan-1-one], the negative logarithm of the IC50 (pIC50) at DDR1 kinase [1] is 5.64; at DDR1 kinase [3], 9.52.

For the molecule `Cc1nc(N)oc1C(=O)N1CC(c2nn(CC(=O)N3CCC[C@H]3C(F)(F)F)c3cc(F)cc(F)c23)C1` [Compound E-110, 2-{3-{1-(2-amino-4-methyl-1,3-oxazole-5-carbonyl)azetidin-3-yl}-4,6-difluoro-1H-indazol-1-yl}-1-[(2S)-2-(trifluoromethyl)pyrrolidin-1-yl]ethan-1-one], the pIC50 on DDR1 kinase [1] is 6.96; at DDR1 kinase [3] it was 7.35.

Take `Nc1cc(C(=O)N2CCC(c3cn(CC(=O)N4CCC[C@H]4C(F)(F)F)c4cccc(F)c34)CC2)ccn1` [Compound E-108, 2-{3-[1-(2-aminopyridine-4-carbonyp)piperidin-4-yl]-4-fluoro-1H-indol-1-yl}-1-[(2S)-2-(trifluoromethyl)pyrrolidin-1-yl]ethan-1-one]: the negative logarithm of the IC50 (pIC50) is 7.00 on DDR1 kinase [1] and 9.00 on DDR1 kinase [3].

Consider `Nc1cc(C(=O)N2CC(c3nn(CC(=O)N4CCO[C@@H](C(F)(F)F)C4)c4cc(F)cc(F)c34)C2)c(F)cn1` [Compound E-42, 2-{3-[1-(2-amino-5-fluoropyridine-4-carbonyl)azetidin-3-yl]-4,6-difluoro-1H-indazol-1-yl)-1-[(2R)-2-(trifluoromethyl)morpholin-4-yl]ethan-1-one], for which the pIC50 is 6.82 on DDR1 kinase [1] and 8.49 on DDR1 kinase [3].

Turning to `Cc1c(C(=O)N2CC(c3nn(CC(=O)N4CCC[C@H]4C(F)(F)F)c4cc(F)cc(F)c34)C2)ccnc1N` [Compound E-77, 2-{3-[1-(2-amino-3-methylpyridine-4-carbonyl)azetidin-3-yl]-4,6-difluoro-1H-indazol-1-yl}-1-{(2S)-2-(trifluoromethyl)pyrrolidin-1-yl]ethan-1-one hydrochloride], the figures for the pIC50 at DDR1 kinase [1] and on DDR1 kinase [3] were 6.49 and 8.46, respectively.

Turning to `Nc1nccc(C(=O)N2CC(c3nn(CC(=O)N4CCO[C@@H](C(F)(F)F)C4)c4ccccc34)C2)c1F` [Compound E-194, 2-{3-[1-(2-amino-3-fluoropyridine-4-carbonyl)azetidin-3-yl]-1H-indazol-1-y1}-1-[(2R)-2-(trifluoromethyl)morpholin-4-yl]ethan-1-one], the pIC50 was 6.43 on DDR1 kinase [1] and 8.32 on DDR1 kinase [3].

Regarding `Nc1cc(C(=O)N2CC(c3nn(Cc4nc(C(F)(F)F)no4)c4ccccc34)C2)ccn1` [Compound E-218], the pIC50 is 7.13 at DDR1 kinase [1] and 7.89 at DDR1 kinase [3].

For `Nc1cc(C(=O)N2CC(c3nn(CC(=O)N4CCC[C@H]4C(F)F)c4ccccc34)C2)c(F)cn1` [Compound E-272, 2-{3-[1-(2-amino-5-fluoropyridine-4-carbonyl)azetidin-3-yl]-1H-indazol-1-yl}-1-[(2S)-2-(difluoromethyl)pyrrolidin-1-yl]ethan-1-one], the negative-log IC50 (pIC50) at DDR1 kinase [1] was 8.52; on DDR1 kinase [3] it was 8.85.

For `Cc1nc(N)sc1C(=O)N1CC(c2nn(CC(=O)N3CCCC3COC(F)(F)F)c3cncc(F)c23)C1` [Compound E-183, 2-{3-[1-(2-amino-4-methyl-1,3-thiazole-5-carbonylazetidin-3-yl)-4-fluoro-1H-pyrazolo[3,4-c]pyridin-1-yl}-1-[(2S)-2-[(trifluoromethoxy)methyl]pyrrolidin-1-yl]ethan-1-one p-toluenesulfonate], the negative logarithm of the IC50 (pIC50) on DDR1 kinase [1] was 6.30; on DDR1 kinase [3] it was 8.06.

In the case of `O=C(Cn1nc(C2CN(C(=O)c3ccnc(NC4CC4)c3)C2)c2c(Cl)c(F)ccc21)NCC(F)(F)F` [Compound E-1, 2-(4-chloro-3-{1-[2-(cycloropylamino)pyridine-4-carbonyl]azetidin-3-yl}-5-fluoro-1H-indazol-1-yl)-N-(2,2,2-trifluoroethyl)acetamide hydrochloride], the pIC50 on DDR1 kinase [1] was 7.11; at DDR1 kinase [3] it was 9.40.

For the molecule `Nc1cc(C(=O)N2CC(c3nn(CC(=O)N4CCO[C@H](C(F)(F)F)C4)c4cc(F)cc(F)c34)C2)ccn1` [Compound E-82, 2-{3-[1-(2-aminopyridine-4-carbonyl)azetidin-3-yl]-4,6-difluoro-1H-indazol-1-yl}-1-[(2S)-2-(trifluoromethyl)morpholin-4-yl]ethan-1-one], the negative logarithm of the IC50 (pIC50) is 6.89 on DDR1 kinase [1] and 9.10 on DDR1 kinase [3].

`Nc1cc(C(=O)N2CC(c3nn(CC(=O)N4CCO[C@@H](C(F)(F)F)C4)c4cccc(F)c34)C2)ccn1` [Compound E-95, 2-{3-[1-(2-aminopyridine-4-carbonyl)azetidin-3-yl]-4-fluoro-1H-indazol-1-yl}-1-[(2R)-2-(trifluoromethyl)morpholin-4-yl]ethan-1-one hydrochloride]: the negative logarithm of the IC50 (pIC50) was 6.32 on DDR1 kinase [1] and 8.11 at DDR1 kinase [3].

`Cc1c(C(=O)N2CC(c3nn(CC(=O)N4CCO[C@H](C(F)(F)F)C4)c4cc(F)cc(F)c34)C2)ccnc1N` [Compound E-89, 2-{3-[1-(2-amino-3-methylpyridine-4-carbonyl)azetidin-3-yl]-4,6-difluoro-1H-indazol-1-yl]-1-[(2S)-2-(trifluoromethyl)morpholin-4-yllethan-1-one hydrochloride]: the pIC50 on DDR1 kinase [1] is 6.40; at DDR1 kinase [3] it was 7.35.
